Publication PMC10107917 (ACS Medicinal Chemistry Letters, 2023)
Bridge positions count the residues as written; N and C are the ends. Peptide text beside a SMILES is read from it.

How the values were obtained:
matriptase-1 (MT1) = target: T1, matriptase-1 (MT1) (Homo sapiens, UniProt Q9Y5Y6); test: Selectivity assay against matriptase-1; format: biochemical; details: Figure S1
T1 construct: Recombinant human matriptase-1/ST14 catalytic domain; purchased R&D Systems, USA
T1 sequence (Q9Y5Y6 615-854 limits assumed): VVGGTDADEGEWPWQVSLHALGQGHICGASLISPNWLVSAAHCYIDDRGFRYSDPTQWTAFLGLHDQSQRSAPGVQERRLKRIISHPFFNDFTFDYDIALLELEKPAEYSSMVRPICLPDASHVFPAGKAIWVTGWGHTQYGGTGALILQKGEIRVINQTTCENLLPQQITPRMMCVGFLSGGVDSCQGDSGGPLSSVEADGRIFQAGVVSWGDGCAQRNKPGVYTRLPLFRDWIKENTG
Experimental: (§1) The selectivities of the strongest furin inhibitors 3, 5, 6, and FI were assessed using commercially available, purified, recombinant proteases, namely, matriptase-1 (MT1) and matriptase-2 (MT2). Both enzymes belong to the type II transmembrane serine proteases, present trypsin-like specificity, and share high structural similarity but differ in biological activity.[33] […]
(§2) The IC50 values (inhibitor concentrations giving 50% inhibition of enzyme activity) were calculated from plots of enzyme activity (% of control sample) versus the inhibitor’s concentration using a four-parameter fit model (GraFit 5.0.12 Erithacus Software Ltd.). The IC50 values were determined from triplicate measurements with at least seven different inhibitor concentrations. The K i values […] were calculated using the Cheng-Prusoff equation, assuming the competitive mode of inhibition, according to the following relationship: IC50 = K i(1+S/Km). All measurements were performed using a Fluostar Omega microplate reader (BMG Labtech, Germany) and 96-well black plates (BRAND, Germany). Recombinant human matriptase-1/ST14 catalytic domain was purchased from R&D Systems, USA. Recombinant human matriptase-2 was obtained from Enzo Life Sciences, Switzerland.
(§3) Soluble human recombinant furin was kindly gifted by Dr Anna Kwiatkowska (group of Prof. Robert Day from Université de Sherbrooke).4
(§4) The following assay buffers were used: […] (matriptase-1 and matriptase-2), pH 7.5 100 mM HEPES with 1 mM CaCl 2 and 1.8 mg/mL BSA (furin). The substrates used in the assays were as follows: for matriptase-1 and matriptase-2 Boc-Gln-Ala-Arg-AMC (Pepta Nova, Germany) in final concentration of 5 µM, for furin […] (Pepta Nova, Germany) in final concentration of 20 µM. Enzymes concentrations were as follows: 1.25 ng/mL of matriptase-1, 1.51 U/mL for matriptase-2, and 1.1 nM for furin. In the case of matriptase-1 and matripase-2 concentrations were calculated according to information provided by the suppliers.
(§5) In short, the tested compounds were added to the appropriate protease in different concentrations and incubated in an assay buffer at 37 °C for 30 min. […] Reactions were monitored for at least 40 min at 37 °C. […] The percentage inhibition of an enzyme was calculated relative to the control sample without an inhibitor. The K m value for furin substrate was determined by incubating the enzyme with its substrate in various concentrations as recommended.5 Plots of the substrate concentration versus the initial reaction velocity were analyzed according to Michaelis-Menten equation using GraFit 5.0.12 Erithacus Software Ltd. A double reciprocal (Lineweaver-Burk) plot was used to determine the Michaelis constant K m value. […]

matriptase-2 (MT2) = target: T2, matriptase-2 (MT2) (Homo sapiens, UniProt Q8IU80); test: Selectivity assay against matriptase-2; format: biochemical; details: Figure S1
T2 construct: purchased Enzo Life Sciences, Switzerland
T2 sequence (Q8IU80 1-811): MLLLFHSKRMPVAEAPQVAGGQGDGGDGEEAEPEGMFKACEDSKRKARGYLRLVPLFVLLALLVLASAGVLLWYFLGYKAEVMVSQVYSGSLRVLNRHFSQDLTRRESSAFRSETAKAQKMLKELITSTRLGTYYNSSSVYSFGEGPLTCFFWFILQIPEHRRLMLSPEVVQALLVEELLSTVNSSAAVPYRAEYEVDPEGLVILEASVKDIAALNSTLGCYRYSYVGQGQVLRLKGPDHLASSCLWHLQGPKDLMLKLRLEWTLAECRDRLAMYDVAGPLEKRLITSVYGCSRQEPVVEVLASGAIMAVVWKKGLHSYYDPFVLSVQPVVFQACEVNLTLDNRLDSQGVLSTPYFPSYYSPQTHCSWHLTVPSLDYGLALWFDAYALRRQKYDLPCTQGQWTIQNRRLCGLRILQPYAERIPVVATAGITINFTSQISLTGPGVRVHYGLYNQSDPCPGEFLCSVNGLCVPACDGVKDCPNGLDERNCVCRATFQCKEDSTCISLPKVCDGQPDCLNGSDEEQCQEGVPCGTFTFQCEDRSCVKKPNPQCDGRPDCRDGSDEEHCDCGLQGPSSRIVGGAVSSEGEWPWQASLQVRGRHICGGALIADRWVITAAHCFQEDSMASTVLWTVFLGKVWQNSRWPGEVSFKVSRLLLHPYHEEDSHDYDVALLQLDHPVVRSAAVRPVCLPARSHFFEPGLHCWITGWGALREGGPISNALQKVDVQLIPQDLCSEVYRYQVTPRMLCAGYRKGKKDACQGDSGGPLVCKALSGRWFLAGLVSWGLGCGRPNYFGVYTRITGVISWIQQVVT
Experimental: as §1, §2, §3, §4, §5

## CC[C@H](C)[C@@H]1NC(=O)[C@@H]2CCCN2C(=O)[C@@H]2CCCN2C(=O)[C@H]([C@@H](C)CC)NC(=O)[C@H](CO)NC(=O)[C@H](CCCCN)NC(=O)[C@H](CCCCN)NC(=O)[C@@H](NC(=O)[C@H](CCCNC(=N)N)NC(=O)[C@H](CCCNC(=N)N)NC(=O)[C@@H](N)CCCNC(=N)N)CSSC[C@@H](C(=O)N[C@@H](Cc2ccccc2)C(N)=O)NC1=O [inhibitor 3, Arg-Arg-Arg-Cys(&)-Lys-Lys-Ser-Ile-Pro-Pro-Ile-Cys(&)-Phe-NH2] (H-RRRCKKSIPPICF-NH2; disulfide 4-12)
matriptase-1 (MT1)
  activity against MT1: not active
matriptase-2 (MT2)
  activity in assay with MT2: only irrelevant activity

## CC[C@H](C)[C@@H]1NC(=O)[C@@H]2CCCN2C(=O)[C@@H]2CCCN2C(=O)[C@H]([C@@H](C)CC)NC(=O)[C@H](CO)NC(=O)[C@H](CCCCN)NC(=O)[C@H](CCCCN)NC(=O)[C@@H]2CSSC[C@H](NC1=O)C(=O)N[C@@H](Cc1ccccc1)C(=O)N[C@@H](CCCNC(=N)N)C(=O)N[C@@H](CCCNC(=N)N)C(=O)N[C@@H](CCCNC(=N)N)C(=O)N2 [inhibitor 6, &^1Arg-Arg-Arg-Cys(&^2)-Lys-Lys-Ser-Ile-Pro-Pro-Ile-Cys(&^2)-Phe&^1] (cyclo(RRRCKKSIPPICF); disulfide 4-12)
matriptase-1 (MT1)
  activity against MT1: not active
matriptase-2 (MT2)
  activity in assay with MT2: only irrelevant activity

## CC[C@H](C)[C@@H]1NC(=O)[C@@H]2CCCN2C(=O)[C@@H]2CCCN2C(=O)[C@H]([C@@H](C)CC)NC(=O)[C@H](CO)NC(=O)[C@H](CCCCN)NC(=O)[C@H](CCCCN)NC(=O)[C@@H](NC(=O)[C@H](CCCNC(=N)N)NC(=O)[C@@H](N)CCCCN)CSSC[C@@H](C(=O)N[C@@H](Cc2ccccc2)C(N)=O)NC1=O [FI, Lys-Arg-Cys(&)-Lys-Lys-Ser-Ile-Pro-Pro-Ile-Cys(&)-Phe-NH2, reference compound] (H-KRCKKSIPPICF-NH2; disulfide 3-11; N-terminus assumed)
matriptase-1 (MT1)
  activity against MT1: not active
matriptase-2 (MT2)
  activity in assay with MT2: only irrelevant activity

## CC[C@H](C)[C@@H]1NC(=O)[C@@H]2CCCN2C(=O)[C@@H]2CCCN2C(=O)[C@H]([C@@H](C)CC)NC(=O)[C@H](CO)NC(=O)[C@H](CCCCN)NC(=O)[C@H](CCCCN)NC(=O)[C@@H]2CSSC[C@H](NC1=O)C(=O)N[C@@H](Cc1ccccc1)C(=O)N[C@@H](CCCCN)C(=O)N[C@@H](CCCNC(=N)N)C(=O)N[C@@H](CCCNC(=N)N)C(=O)N2 [inhibitor 5, &^1Lys-Arg-Arg-Cys(&^2)-Lys-Lys-Ser-Ile-Pro-Pro-Ile-Cys(&^2)-Phe&^1] (cyclo(KRRCKKSIPPICF); disulfide 4-12)
matriptase-1 (MT1)
  activity against MT1: not active
matriptase-2 (MT2)
  activity in assay with MT2: only irrelevant activity
